Laboratory results taken from US10024862B2, “Recognition of cellular target binding by a bioactive agent using intracellular bioluminescence resonance energy transfer” (Promega Corporation, priority 2012, dated 2018).
One block for each compound: values may come before it.

Assays:
[1] = biological target: 11S-BRD4/114-Histone H3.3 complex (Homo sapiens, UniProt O60885); assay: Competitive displacement of iBET-NCT tracer from 11S-BRD4/Histone H3.3-114 complex, BRET (Example 22); format: binding; details: HEK293 cells, 2 uM iBET-NCT/PBI-4966 tracer, FIG. 28
[2] = biological target: T1, NanoLuc-HDAC6 (Homo sapiens, UniProt Q9UBN7); assay: Tracer affinity BRET, NanoLuc-HDAC6 (Example 13); format: binding; details: HEK293 cells, serially-diluted tracer with or without 4 uM BIRB796, FIGS. 14 and 15
T1 construct: expressed in transfected cells; host or cells: HEK293
T1 sequence (Q9UBN7 with tags, fused parts or gaps): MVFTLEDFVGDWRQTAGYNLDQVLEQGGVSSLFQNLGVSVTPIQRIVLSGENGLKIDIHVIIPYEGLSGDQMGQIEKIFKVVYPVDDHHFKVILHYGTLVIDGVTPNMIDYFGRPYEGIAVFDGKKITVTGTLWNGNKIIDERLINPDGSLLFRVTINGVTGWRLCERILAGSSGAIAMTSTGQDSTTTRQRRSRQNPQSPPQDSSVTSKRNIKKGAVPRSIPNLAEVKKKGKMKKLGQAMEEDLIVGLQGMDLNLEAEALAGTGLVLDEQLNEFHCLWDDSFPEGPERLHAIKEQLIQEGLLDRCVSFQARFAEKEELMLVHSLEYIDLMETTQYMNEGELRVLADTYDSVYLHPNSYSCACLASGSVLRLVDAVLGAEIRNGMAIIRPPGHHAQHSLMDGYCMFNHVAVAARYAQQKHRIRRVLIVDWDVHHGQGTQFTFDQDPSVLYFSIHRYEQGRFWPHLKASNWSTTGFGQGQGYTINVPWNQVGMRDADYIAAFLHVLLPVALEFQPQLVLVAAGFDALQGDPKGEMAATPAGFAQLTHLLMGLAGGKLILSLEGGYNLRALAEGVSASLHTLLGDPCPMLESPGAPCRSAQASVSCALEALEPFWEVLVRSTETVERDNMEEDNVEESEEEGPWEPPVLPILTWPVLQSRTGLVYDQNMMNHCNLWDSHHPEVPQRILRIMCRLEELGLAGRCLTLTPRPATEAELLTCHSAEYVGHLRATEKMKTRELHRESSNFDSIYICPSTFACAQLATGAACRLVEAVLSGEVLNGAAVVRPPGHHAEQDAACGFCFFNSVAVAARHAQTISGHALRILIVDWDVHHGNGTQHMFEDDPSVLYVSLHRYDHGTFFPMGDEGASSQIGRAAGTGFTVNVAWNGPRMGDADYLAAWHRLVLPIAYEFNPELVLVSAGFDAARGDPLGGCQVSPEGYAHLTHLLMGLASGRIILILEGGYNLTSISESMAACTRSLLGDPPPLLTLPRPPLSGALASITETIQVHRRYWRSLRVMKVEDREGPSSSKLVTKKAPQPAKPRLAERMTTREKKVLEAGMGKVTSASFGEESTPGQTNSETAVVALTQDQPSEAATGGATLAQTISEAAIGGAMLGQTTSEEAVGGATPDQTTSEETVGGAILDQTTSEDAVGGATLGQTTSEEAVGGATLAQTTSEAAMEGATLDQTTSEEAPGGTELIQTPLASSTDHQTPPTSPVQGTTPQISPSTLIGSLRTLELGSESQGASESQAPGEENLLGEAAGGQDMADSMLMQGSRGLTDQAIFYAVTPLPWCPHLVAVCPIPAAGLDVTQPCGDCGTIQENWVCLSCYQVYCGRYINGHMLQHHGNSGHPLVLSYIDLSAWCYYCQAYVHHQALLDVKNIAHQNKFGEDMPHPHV
Experimental: (§1) Cells were incubated at 37° C. for two hours.

[3] = biological target: T2, NanoLuc-p38alpha (Homo sapiens, UniProt Q16539); assay: BRET tracer binding to NanoLuc-p38alpha in HEK293 cells (Example 10); details: serially-diluted tracer, 37° C. two hours, FIG. 11
T2 construct: expressed in transfected cells; host or cells: HEK293
T2 sequence (Q16539 whole entry): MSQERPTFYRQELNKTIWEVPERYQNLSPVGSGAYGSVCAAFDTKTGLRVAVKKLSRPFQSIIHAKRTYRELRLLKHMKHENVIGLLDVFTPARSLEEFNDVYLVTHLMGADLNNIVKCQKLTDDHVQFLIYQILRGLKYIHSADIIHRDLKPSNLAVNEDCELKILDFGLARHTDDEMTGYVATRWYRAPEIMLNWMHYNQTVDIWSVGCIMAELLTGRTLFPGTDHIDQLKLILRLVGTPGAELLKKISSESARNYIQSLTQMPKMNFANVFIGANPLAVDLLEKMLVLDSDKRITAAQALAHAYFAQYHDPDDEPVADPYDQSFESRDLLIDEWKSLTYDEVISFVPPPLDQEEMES
Experimental: as §1

[4] = system: NanoLuc fusions to various members of the MAPK pathway; assay: Tracer selectivity across p38/MAPK pathway NanoLuc fusions, BRET response ratio (Example 12); format: binding; details: HEK293 cells, 2 uM tracer with or without 4 uM BIRB796, FIG. 13
Experimental: (§2) Cells were incubated at 37° C. for two hours. […] To determine response ratios, the BRET values with tracer alone were divided by the BRET values with tracer+unmodified BIRB796.

[5] = system: panel of 11 kinases (N- and C-terminal NanoLuc fusions); assay: NanoLuc fusion protein array screen, cell-free TNT expression, BRET response ratio (Example 17); format: binding; details: cell-free TNT reactions diluted 1:100, tracer with or without excess free drug, 2 h room temperature, FIG. 19
Experimental: Each TNT® reaction was diluted 1:100 in PBS and plated in replicates into wells of 96-well plates. […] For each TNT® reaction, 4 replicates with 2 uM BIRB TOM/4 replicates with 2 uM BIRB-TOM+4 uM BIRB796 (total of 2×96-well plates) and 4 replicas with 1 uM Dasatinib-TOM/4 replicates with 1 uM Dasatinib-TOM+5 uM Dasatinib (total of 2×96-well plates) were performed. The reactions were incubated with constant mixing for 2 h at room temperature. […] To determine response ratios, the BRET values with tracer alone were divided by the BRET values with tracer+unmodified.

[6] = biological target: T3, PKCalpha-NanoLuc (Homo sapiens, UniProt P17252); assay: Tracer affinity BRET, PKCalpha-NanoLuc (Example 13); format: binding; details: HEK293 cells, serially-diluted tracer with or without 4 uM BIRB796, FIGS. 14 and 15
T3 construct: expressed in transfected cells; host or cells: HEK293
Experimental: as §1

[7] = biological target: T3, PKCalpha-NanoLuc; assay: Tracer BRET with PKCalpha-NanoLuc in MAPK panel (Example 12); format: binding; details: HEK293 cells, 2 uM tracer with or without 4 uM BIRB796, FIG. 13
Experimental: as §2

[8] = biological target: T4, HDAC2 (Homo sapiens, UniProt Q92769); assay: SAHA tracer BRET with HDAC2 NANOLUC fusion in HeLa cells (Example 23); format: binding; details: FIG. 29
T4 construct: expressed in transfected cells; host or cells: HeLa
T4 sequence (Q92769 whole entry, the tested form may be a part): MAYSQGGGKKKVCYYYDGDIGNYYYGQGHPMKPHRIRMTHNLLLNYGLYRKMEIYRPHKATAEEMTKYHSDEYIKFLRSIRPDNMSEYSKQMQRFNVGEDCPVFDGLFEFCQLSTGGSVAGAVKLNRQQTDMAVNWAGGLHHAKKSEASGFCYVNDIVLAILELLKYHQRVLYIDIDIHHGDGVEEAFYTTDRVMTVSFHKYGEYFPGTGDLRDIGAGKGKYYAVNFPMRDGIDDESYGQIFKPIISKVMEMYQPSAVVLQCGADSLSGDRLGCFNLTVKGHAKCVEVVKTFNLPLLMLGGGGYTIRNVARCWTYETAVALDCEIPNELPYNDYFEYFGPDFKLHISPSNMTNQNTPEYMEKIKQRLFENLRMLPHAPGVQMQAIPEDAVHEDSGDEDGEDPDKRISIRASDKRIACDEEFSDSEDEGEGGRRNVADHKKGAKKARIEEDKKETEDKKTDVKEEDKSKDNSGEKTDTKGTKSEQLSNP
Experimental: (§3) HeLa cells were transfected with plasmid DNA encoding NANOLUC fusions with the entire family of non-sirtuin histone deacetylases (HDACs 1-11). […] Cells were incubated at 37° C. for two hours. […] BRET was then measured on a BMG Clariostar luminometer equipped with 450 nm bandpass and 610 nm longpass filters. […] To determine specific, background corrected BRET values, the nonspecific BRET values at each concentration of tracer were subtracted from BRET values with tracer alone.

[9] = system: Class IIa HDACs; assay: SAHA tracer BRET with Class IIa HDAC NANOLUC fusions in HeLa cells (Example 23); format: binding; details: FIG. 31
Experimental: as §3

[10] = biological target: T5, HDAC8 (Homo sapiens, UniProt Q9BY41); assay: SAHA tracer BRET with HDAC8 NANOLUC fusion in HeLa cells (Example 23); format: binding; details: FIG. 29
T5 construct: expressed in transfected cells; host or cells: HeLa
T5 sequence (Q9BY41 1-377): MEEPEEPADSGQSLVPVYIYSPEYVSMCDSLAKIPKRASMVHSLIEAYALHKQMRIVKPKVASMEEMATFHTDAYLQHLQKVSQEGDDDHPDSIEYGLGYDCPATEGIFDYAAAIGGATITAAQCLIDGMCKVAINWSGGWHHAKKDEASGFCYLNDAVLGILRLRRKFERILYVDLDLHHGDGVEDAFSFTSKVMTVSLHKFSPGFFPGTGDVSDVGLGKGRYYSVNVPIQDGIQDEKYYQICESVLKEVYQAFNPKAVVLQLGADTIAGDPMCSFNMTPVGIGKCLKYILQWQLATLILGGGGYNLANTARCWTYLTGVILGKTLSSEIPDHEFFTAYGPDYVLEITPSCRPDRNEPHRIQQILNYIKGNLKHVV
Experimental: as §3

[11] = biological target: T6, HDAC3 (Homo sapiens, UniProt O15379); assay: SAHA tracer BRET with HDAC3 NANOLUC fusion in HeLa cells (Example 23); format: binding; details: FIG. 29
T6 construct: expressed in transfected cells; host or cells: HeLa
T6 sequence (O15379 whole entry, the tested form may be a part): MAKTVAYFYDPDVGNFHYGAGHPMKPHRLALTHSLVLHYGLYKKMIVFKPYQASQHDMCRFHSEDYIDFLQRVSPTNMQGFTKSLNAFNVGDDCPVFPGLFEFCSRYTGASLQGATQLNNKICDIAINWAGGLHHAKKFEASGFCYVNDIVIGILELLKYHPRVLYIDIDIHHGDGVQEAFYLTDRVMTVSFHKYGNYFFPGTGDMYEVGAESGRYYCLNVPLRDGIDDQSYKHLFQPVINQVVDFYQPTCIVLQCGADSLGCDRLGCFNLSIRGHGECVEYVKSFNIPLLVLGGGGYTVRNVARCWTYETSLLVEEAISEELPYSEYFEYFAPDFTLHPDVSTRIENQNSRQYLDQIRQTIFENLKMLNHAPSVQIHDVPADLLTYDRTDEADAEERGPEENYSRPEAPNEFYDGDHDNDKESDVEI
Experimental: as §3

[12] = biological target: T7, HDAC1 (Homo sapiens, UniProt Q13547); assay: SAHA tracer BRET with HDAC1 NANOLUC fusion in HeLa cells (Example 23); format: binding; details: FIG. 29
T7 construct: expressed in transfected cells; host or cells: HeLa
T7 sequence (Q13547 whole entry, species assumed, the tested form may be a part): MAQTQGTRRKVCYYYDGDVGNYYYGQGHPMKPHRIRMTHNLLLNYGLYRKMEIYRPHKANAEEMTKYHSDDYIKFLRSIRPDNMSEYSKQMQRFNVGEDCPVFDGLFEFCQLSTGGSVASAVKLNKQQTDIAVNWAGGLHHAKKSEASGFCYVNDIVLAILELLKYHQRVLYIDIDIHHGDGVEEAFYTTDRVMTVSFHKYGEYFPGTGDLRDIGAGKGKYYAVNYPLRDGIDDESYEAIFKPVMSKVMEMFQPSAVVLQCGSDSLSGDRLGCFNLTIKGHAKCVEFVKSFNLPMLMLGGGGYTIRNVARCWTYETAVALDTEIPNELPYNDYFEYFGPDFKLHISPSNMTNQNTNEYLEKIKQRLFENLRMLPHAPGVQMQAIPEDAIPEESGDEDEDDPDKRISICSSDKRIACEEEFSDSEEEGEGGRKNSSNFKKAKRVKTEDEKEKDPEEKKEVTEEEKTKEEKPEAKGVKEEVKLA
Experimental: as §3

[13] = biological target: T8, HDAC10 (Homo sapiens, UniProt Q969S8); assay: SAHA tracer BRET with HDAC10 NANOLUC fusion in HeLa cells (Example 23); format: binding; details: FIG. 30
T8 construct: expressed in transfected cells; host or cells: HeLa
T8 sequence (Q969S8 1-669): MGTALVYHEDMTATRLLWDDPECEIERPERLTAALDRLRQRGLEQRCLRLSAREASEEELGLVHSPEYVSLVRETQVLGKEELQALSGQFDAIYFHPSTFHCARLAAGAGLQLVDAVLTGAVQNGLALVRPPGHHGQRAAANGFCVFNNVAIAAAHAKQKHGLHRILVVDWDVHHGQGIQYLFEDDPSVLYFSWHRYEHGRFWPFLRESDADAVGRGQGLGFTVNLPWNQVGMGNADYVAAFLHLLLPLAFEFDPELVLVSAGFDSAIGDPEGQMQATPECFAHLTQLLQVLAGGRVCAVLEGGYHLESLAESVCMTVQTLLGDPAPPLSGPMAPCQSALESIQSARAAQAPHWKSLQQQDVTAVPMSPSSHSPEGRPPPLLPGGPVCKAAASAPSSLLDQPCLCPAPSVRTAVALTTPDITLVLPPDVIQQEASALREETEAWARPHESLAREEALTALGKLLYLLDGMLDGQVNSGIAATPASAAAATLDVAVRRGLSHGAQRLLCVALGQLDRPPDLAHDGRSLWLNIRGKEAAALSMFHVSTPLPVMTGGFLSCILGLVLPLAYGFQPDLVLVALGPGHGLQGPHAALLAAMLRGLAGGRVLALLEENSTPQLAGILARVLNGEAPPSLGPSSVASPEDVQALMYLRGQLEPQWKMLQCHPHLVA
Experimental: as §3

[14] = biological target: T1, NanoLuc-HDAC6; assay: Intracellular BRET tracer binding to NanoLuc-HDAC6 (Example 1); details: HEK293 cells, compared to SAHA-TMR (PBI-4967), FIG. 2
Experimental: HEK293 cells were transfected using FuGene HD (Promega Corp.) with plasmid DNA encoding a NanoLuc-HDAC6 fusion protein. NanoLuc-HDAC6 DNA was diluted 1:1000 with a promoterless carrier DNA (pGEM3Z) to yield a final concentration of 50 ng/well total DNA in 96-well plate format (at a seeding density of 20,000 cells/well). Twenty-four hours post-transfection, cells were then incubated with serially-diluted tracer in the presence or absence of a molar excess of unlabeled SAHA (as a specificity control). Following equilibration with the drug tracers, furimazine (a coelenterazine derivative substrate for NanoLuc; Promega Corp.) was added at a concentration of 20 uM, and BRET was quantified on a Varioskan luminometer. The specific BRET signal was calculated by subtracting the non-specific signal (in the presence of unlabeled SAHA) from the signal generated from the SAHA tracer alone.

[15] = biological target: T9, HDAC6 (Homo sapiens, UniProt Q9UBN7); assay: SAHA tracer BRET with HDAC6 NANOLUC fusion in HeLa cells (Example 23); format: binding; details: FIG. 30
T9 construct: expressed in transfected cells; host or cells: HeLa
T9 sequence (Q9UBN7 with tags, fused parts or gaps): as the sequence (Q9UBN7 with tags, fused parts or gaps) above
Experimental: as §3

[16] = biological target: T1, NanoLuc-HDAC6; assay: Competitive displacement of SAHA-TOM tracer from NanoLuc-HDAC6, BRET (Example 15); format: binding; details: HEK293 cells, serially-diluted inhibitor with 1 uM SAHA-TOM (PBI-4968), two hours, FIG. 17

effect on BRET signal (competitive binding) [1]: diminished in a dose-dependent manner
Structure (SMILES): COc1cc2c(cc1-c1c(C)noc1C)ncc1[nH]c(=O)n([C@H](C)c3ccccn3)c12 [IBET 151]

Structure (SMILES): CC(C)(C)c1cc(NC(=O)Nc2ccccc2)n(-c2cccc(CNC(=O)CN)c2)n1 [PBI-4838]
specific BRET signal [2]: relatively little specific BRET signal
EC50 [3]: 38 nM
selectivity of tracer (targets giving specific BRET) [4]: Jnk2, p38beta and p38alpha
selectivity of tracer (hits in NanoLuc fusion array) [5]: JNk2, JNk3, MAPK14, MAPK11 and MAPK13
specific BRET signal [6]: relatively little specific BRET signal
specific BRET signal [7]: relatively little specific BRET signal

BRET with tracer [8]: specific BRET signals
BRET with tracer [10]: specific BRET signals
BRET with tracer [11]: specific BRET signals
BRET with tracer [12]: specific BRET signals
BRET with tracer [13]: specific BRET
EC50 value for binding within living cells [14]: left-shifted EC50 value
specific BRET signal [14]: superior, specific BRET signal
BRET with tracer [15]: specific BRET
Structure (SMILES): O=C(CCCCCCC(=O)Nc1ccc(CNC(=O)c2ccc(C(=O)O)c(C3=c4cc5c6c(c4Oc4c3cc3c7c4CCCN7CCCC3)CCC[N+]=6CCCC5)c2)cc1)NO [PBI-4968]
BRET with tracer [9]: do not generate significant BRET

Structure (SMILES): Cc1nc(Nc2ncc(C(=O)Nc3c(C)cccc3Cl)s2)cc(N2CCN(CCOC(=O)NCCCCCNC(=O)c3ccc(C(=O)O)c(C4=c5cc6c7c(c5Oc5c4cc4c8c5CCCN8CCCC4)CCC[N+]=7CCCC6)c3)CC2)n1 [PBI-5170]
selectivity of tracer (hits in NanoLuc fusion array) [5]: ABL1, Src, LCK, MEK5, MAPK11 and MAPK14

Structure (SMILES): O=C(CCCCCCC(=O)Nc1ccccc1)NO [SAHA, suberoylanilide hydroxamic acid]
binding efficiency to HDAC6 [16]: high binding efficiency
